Source: ChEMBL document CHEMBL4665675 (J Med Chem, 2020)
pIC50: −log10 of the molar value. One block for each compound: values may come before it.

How the values were obtained:
[1] = Inhibition of calf brain tubulin by turbidimetry; set-up: species or system Bos taurus
SF-268 [2] = assay: Cytotoxicity against human SF-268 cells by calcein AM reagent based fluorescence method; type: functional, cell-based
SF-268 [3] = assay: Cytotoxicity against human SF-268 cells by cell titer-glow assay; type: functional, cell-based
HCT-116 [4] = assay: Cytotoxicity against human HCT-116 cells by calcein AM reagent based fluorescence method; type: functional, cell-based
HCT-116 [5] = assay: Cytotoxicity against human HCT-116 cells by cell titer-glow assay; type: functional, cell-based
MIA PaCa-2 = assay: Cytotoxicity against human Mia PaCa-2 cells incubated for 48 hrs by MTT assay; type: functional, cell-based; conditions: MIA PaCa-2, 48 h
BXPC-3 = assay: Cytotoxicity against human BxPC-3 cells incubated for 48 hrs by MTT assay; type: functional, cell-based; conditions: BXPC-3, 48 h
A549 [6] = assay: Cytotoxicity against human A549 cells incubated for 48 hrs by MTT assay; type: functional, cell-based; conditions: A549, 48 h
PC-3 = assay: Cytotoxicity against human PC-3 cells incubated for 48 hrs by MTT assay; type: functional, cell-based; conditions: PC-3, 48 h
HT-29 = assay: Cytotoxicity against human HT-29 cells incubated for 48 hrs by MTT assay; type: functional, cell-based; conditions: HT-29, 48 h
[7] = Cytotoxicity against human HGF-1 cells incubated for 48 hrs by MTT assay; type: cell-based; conditions: HGF1, 48 h
HEK293 = assay: Cytotoxicity against HEK293 cells incubated for 48 hrs by MTT assay; type: cell-based; conditions: Homo sapiens, HEK293, 48 h
[8] = Cytotoxicity against human BHP-1 cells incubated for 48 hrs by MTT assay; type: cell-based; conditions: BHP1, 48 h
KB 3-1 = assay: Antiproliferative activity against human KB-31 cells incubated for 96 hrs by spectrophotometric method; type: functional, cell-based; conditions: KB 3-1, 96 h
[9] = Antiproliferative activity against human KB-8511 cells incubated for 96 hrs by spectrophotometric method; type: functional, cell-based; conditions: KB-ChR-8-5-11, 96 h
Bos taurus = species: Bos taurus; assay: Inhibition of bovine brain tubulin polymerization preincubated for 15 mins followed by GTP addition and measured for 30 mins by spectrophotometric method
[10] = Inhibition of bovine brain tubulin polymerization preincubated for 15 mins followed by GTP addition; set-up: species or system Bos taurus
KB = assay: Antiproliferative activity against human KB cells incubated for 36 hrs; type: functional, cell-based
P388 = assay: Antiproliferative activity against mouse P388 cells incubated for 36 hrs; type: functional, cell-based; conditions: P388, 36 h
A549 [11] = assay: Antiproliferative activity against human A549 cells incubated for 36 hrs; type: functional, cell-based; conditions: A549, 36 h
RPMI-7951 = assay: Antiproliferative activity against human RPMI-7951 cells incubated for 36 hrs; type: functional, cell-based; conditions: RPMI-7951, 36 h
HCT-8 = assay: Antiproliferative activity against human HCT-8 cells incubated for 36 hrs; type: functional, cell-based; conditions: HCT-8, 36 h
TE-671 = assay: Antiproliferative activity against human TE-671 cells incubated for 36 hrs; type: functional, cell-based; conditions: TE-671, 36 h
BJAB = assay: Cytotoxicity against human BJAB cells; type: functional, cell-based
DU-145 = assay: Antiproliferative activity against human DU145 cells incubated for 72 hrs by WST assay; type: functional, cell-based; conditions: DU-145, 72 h
PANC-1 [12] = assay: Antiproliferative activity against human PANC1 cells incubated for 72 hrs by WST assay; type: functional, cell-based; conditions: PANC-1, 72 h
HeLa = assay: Cytotoxicity against human HeLa cells after 24 to 72 hrs by Cell Titer Blue assay; type: cell-based
[13] = biological target: T1, carboxylesterase 1 (CES1) (Homo sapiens, UniProt P23141); assay: Substrate activity at human carboxylesterase 1 expressed in baculovirus infected Sf9 insect cells assessed as enzyme-catalysed compound cleavage incubated for 2 hrs by HPLC analysis; type: ADME; conditions: read-out: Activity
T1 sequence (P23141 whole entry): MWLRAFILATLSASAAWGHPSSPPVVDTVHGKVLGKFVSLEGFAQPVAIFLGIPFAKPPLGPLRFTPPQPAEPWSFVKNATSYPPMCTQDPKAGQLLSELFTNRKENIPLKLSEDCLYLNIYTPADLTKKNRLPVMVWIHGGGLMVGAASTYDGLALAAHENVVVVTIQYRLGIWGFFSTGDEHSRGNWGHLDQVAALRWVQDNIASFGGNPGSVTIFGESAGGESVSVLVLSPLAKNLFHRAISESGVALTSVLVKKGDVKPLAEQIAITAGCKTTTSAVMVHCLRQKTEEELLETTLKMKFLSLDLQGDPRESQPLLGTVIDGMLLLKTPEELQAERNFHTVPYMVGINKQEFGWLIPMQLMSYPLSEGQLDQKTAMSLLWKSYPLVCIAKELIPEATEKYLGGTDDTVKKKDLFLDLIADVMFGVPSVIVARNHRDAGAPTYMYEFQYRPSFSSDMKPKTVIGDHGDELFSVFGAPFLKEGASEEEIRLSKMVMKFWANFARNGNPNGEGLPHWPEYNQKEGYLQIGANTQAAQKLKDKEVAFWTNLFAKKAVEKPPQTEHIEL

HaCaT = assay: Cytotoxicity against human HaCaT cells incubated for 72 hrs by MTT assay; type: functional, cell-based
PANC-1 [14] = assay: Cytotoxicity against human PANC1 cells incubated for 72 hrs by MTT assay; type: functional, cell-based; conditions: PANC-1, 72 h

Structure (SMILES): COc1cc2c(c(OC)c1OC)-c1ccc(OC)c(=O)cc1[C@@H](NC(=O)CN(OC)C1C[C@@H](O)[C@@H](O)[C@@H](CO)O1)CC2 (some centres undefined)
pIC50 (SF-268 [2]): 6.52 | pIC50 (SF-268 [3]): 6.52 | pIC50 (HCT-116 [4]): 6.52 | pIC50 (HCT-116 [5]): 6.52

Structure (SMILES): COc1cc2c(c(OC)c1OC)-c1ccc(Nc3ccc(Cl)c(C(F)(F)F)c3)c(=O)cc1[C@@H](NC(C)=O)CC2
pIC50 (MIA PaCa-2): 7.46 | pIC50 (BXPC-3): 7.46 | pIC50 (A549 [6]): 7.46 | pIC50 (PC-3): 7.46 | pIC50 (HT-29): 7.46 | pIC50 [7]: 7.46 | pIC50 (HEK293): 7.46 | pIC50 [8]: 7.46

Structure (SMILES): COc1cc2c(c(OC)c1OC)-c1ccc(OC)c(=O)cc1[C@@H](n1cc(CCC(=O)Cc3ccc4oc(=O)ccc4c3)nn1)CC2
pIC50 (BJAB): 7.22

Structure (SMILES): COc1cc2c(c(OC)c1OC)-c1ccc(O)cc1[C@@H](NC(C)=O)CC2 [N-ACETYLCOLCHINOL]
pIC50 (DU-145): 6.14 | pIC50 (PANC-1 [12]): 5.36

Structure (SMILES): COc1cc2c(c(OC)c1OC)-c1ccc(OC)c(=O)cc1[C@@H](NC(=O)CN(OC)C1C[C@H](O)[C@H](O)[C@@H](C)O1)CC2 (some centres undefined)
pIC50 (SF-268 [2]): 6.52 | pIC50 (SF-268 [3]): 6.52 | pIC50 (HCT-116 [4]): 6.52 | pIC50 (HCT-116 [5]): 6.52

Structure (SMILES): COc1cc2c(c(OC)c1OC)-c1ccc(OC)c(=O)cc1[C@@H](NC(=O)CN(OC)C1C[C@H](O)[C@H](O)CO1)CC2 (some centres undefined)
pIC50 (SF-268 [2]): 6.52 | pIC50 (SF-268 [3]): 6.52 | pIC50 (HCT-116 [4]): 6.52 | pIC50 (HCT-116 [5]): 6.52

Structure (SMILES): COc1cc2c(c(OC)c1OC)-c1ccc(NCCC(O)C(=O)N[C@@H](CC(C)C)C(=O)OC3CCCC3)c(=O)cc1[C@@H](NC(C)=O)CC2 (some centres undefined)
pIC50 (HeLa): 6.64 | metabolised at 2 h [13]: 13%

Structure (SMILES): COc1cc2c(c(OC)c1OC)-c1ccc(OC)c(=O)cc1[C@@H](NC(=O)CN(OC)C1O[C@@H]3OC(=O)[C@@H](O)[C@@H]3[C@@H]1O)CC2 (some centres undefined)
pIC50 (SF-268 [2]): 6.52 | pIC50 (SF-268 [3]): 6.52 | pIC50 (HCT-116 [4]): 6.52 | pIC50 (HCT-116 [5]): 6.52

Structure (SMILES): COc1cc2c(c(OC)c1OC)-c1ccc(NCCCCCCCC(=O)N[C@@H](CC(C)C)C(=O)OC3CCCC3)c(=O)cc1[C@@H](NC(C)=O)CC2
pIC50 (HeLa): 5.31 | metabolised at 2 h [13]: 76%

Structure (SMILES): C=C1COc2cc3c(cc21)-c1c(cc(OC)c(OC)c1OC)CC[C@@H]3NC(=O)COC(=O)Cc1nc(CCCCCCCCCC(=O)OC(COC(=O)CCCCCCCCCCCCCCC)COP(=O)([O-])OCC[N+](C)(C)C)n[nH]1 (some centres undefined)
pIC50 (HaCaT): 6.40 | pIC50 (PANC-1 [14]): 6.40

Second part, led by results:

pIC50 [1]: 4.68
Structure (SMILES): COc1ccc2c(c1)NC(=O)CCc1cc(OC)c(OC)c(OC)c1-2

pIC50 [1]: 6.37
Structure (SMILES): COc1ccc2c(c1)C(=O)CCc1cc(OC)c(OC)c(OC)c1-2

pIC50 [1]: 5.64
Structure (SMILES): COc1ccc2c(c1)N(C(C)=O)CCCc1cc(OC)c(OC)c(OC)c1-2

pIC50 (KB 3-1): < 6.00 | inhibition (Bos taurus): 0%
Structure (SMILES): COc1c(CNC(=O)c2ccccc2)c2c(c(OC)c1OC)-c1ccc(OC)c(=O)cc1[C@@H](NC(C)=O)CC2
pIC50 [9]: < 6.00

pIC50 [10]: 5.62 | pIC50 (KB): 6.85 | pIC50 (P388): 7.66 | pIC50 (A549 [11]): 6.60 | pIC50 (HCT-8): 6.80
Structure (SMILES): C=C1Cc2cc(OC)c(OC)c(OC)c2-c2ccc(SC)c(=O)cc21
pIC50 (RPMI-7951): 10.08 | pIC50 (TE-671): 10.08

pIC50 [10]: 5.43 | pIC50 (KB): 7.96 | pIC50 (P388): 7.80 | pIC50 (A549 [11]): 12.00 | pIC50 (HCT-8): 6.75
Structure (SMILES): CCOC(=O)OC[C@H]1Cc2cc(OC)c(OC)c(OC)c2-c2ccc(SC)c(=O)cc21
pIC50 (RPMI-7951): 12.00 | pIC50 (TE-671): 12.00

pIC50 (DU-145): 5.85 | pIC50 (PANC-1 [12]): 5.15
Structure (SMILES): COC(=O)NC1CCc2cc(OC)c(OC)c(OC)c2-c2ccc(F)cc21 (centres undefined)

pIC50 [1]: 6.33
Structure (SMILES): COc1ccc2c(c1)-c1n[nH]cc1Cc1cc(OC)c(OC)c(OC)c1-2

pIC50 (KB 3-1): < 6.00 | inhibition (Bos taurus): 100%
Structure (SMILES): COc1c(COC(C)=O)c2c(c(OC)c1OC)-c1ccc(OC)c(=O)cc1[C@@H](NC(C)=O)CC2
pIC50 [9]: < 6.00

pIC50 (KB 3-1): < 6.00 | inhibition (Bos taurus): 0%
Structure (SMILES): COc1c(CN(C)C(C)=O)c2c(c(OC)c1OC)-c1ccc(OC)c(=O)cc1[C@@H](NC(C)=O)CC2
pIC50 [9]: < 6.00

inhibition (Bos taurus): 100%
Structure (SMILES): COc1c(CO)c2c(c(OC)c1OC)-c1ccc(OC)c(=O)cc1[C@@H](NC(C)=O)CC2
pIC50 [9]: < 6.00
